Measured values reported in US20240226342A1, “REACTIVE OXYGEN SPECIES IMAGING AGENTS” (Washington University, priority 2022, published 2024).

What was measured:
[1] = test system: LPS induced systemic inflammation of mouse brain; test: Dynamic PET/CT imaging in LPS-treated mice; format: in vivo; conditions: for brain uptake in LPS-treated mice relative to saline-treated mice: 24 h post LPS, frames 45-60 min
Experimental: FIG. 9A-FIG. 9D is an exemplary embodiment showing preclinical PET/CT imaging in accordance with the present disclosure. C57BI6 mice (n=4) were injected with either LPS or saline intraperitoneally. 24 h post treatments, 18F-SLN-128 (100 μCi) was injected via tail-vein into mice. Dynamic PET images were acquired from 0 min to 60 min post tail-vein injection of the radiotracer. PET/CT images as shown are a summation frames from 45-60 min. FIG. 9A is an image showing saline treated mice (control). FIG. 9B is an image showing LPS treated mice (5 μg/g, 24 h post treatment); FIG. 9C is a bar graph showing quantified uptake: % ID/cm3. FIG. 9D is a bar graph showing post imaging biodistribution: Brain Uptake (% ID/g). mean±SD, where **p<0.01 and […] is determined by an unpaired student ttest) in brains of BI6 mice (n=4) 24 h post either LPS- or saline treatments.
Systemic administration of LPS induces oxidative stress and resulting a release of inflammatory cytokines, sustained microglial activation, and neuronal cell loss in brain areas, such as the hippocampus, cerebral cortex, substantia nigra, ventral tegmental area, and thalamus, alters the levels of neurotransmitters in adult animals, and cerebellum. Thus LPS-induced inflammation provides a useful rodent model for preclinical imaging of ^18F-SLN-128. […] Finally, the brain uptake (see e.g., FIG. 9C) derived from PET imaging also correlated with 60 min post imaging quantified uptake (see e.g., FIG. 9D) indicating potential of the radiotracer for imaging endotoxin mediated brain inflammation in vivo. Mitochondrial dysfunction is a major event in the pathogenesis of Huntington disease (HD). It has also been reported that systemic 3-NP administration leads to oxidized proteins in the striatum, as well as a massive loss of striatal neurons. To evaluate potential of ^18F-SLN-128 PET imaging for 3NP-induced ROS-mediated neurodegeneration in mice, PET/CT imaging was performed.

[2] = test system: 3NP-induced ROS-mediated neurodegeneration in mice; test: PET/CT imaging after stereotaxic injection of 3-NP into striatum; format: in vivo
Experimental: FIG. 10A-FIG. 10D is an exemplary embodiment showing preclinical PET/CT imaging in accordance with the present disclosure. C57BI6 mice (n=4) were injected with either 3-Nitropropionic acid (3-NP) or saline into striatum. 72 h following treatments, 18F-SLN-128 was injected via tail-vein into mice. FIG. 10A includes PET/CT images shown as a summation frames from 45-60 min. Dynamic PET images acquired from 0 min to 60 min post tail-vein injection. Left: Control; Right: 3-NP treated (1 mg/kg, 72 h post treatment). FIG. 10B is a bar graph showing uantified uptake (% ID/cm^3) from PET imaging. FIG. 10C includes images of brains extracted from mice, fixed in PFA/sucrose; sectioned (40 μm); stained with Cresyl violet; Arrow indicates injection site. […]
Systemic administration of LPS induces oxidative stress and resulting a release of inflammatory cytokines, sustained microglial activation, and neuronal cell loss in brain areas, such as the hippocampus, cerebral cortex, substantia nigra, ventral tegmental area, and thalamus, alters the levels of neurotransmitters in adult animals, and cerebellum. […] Finally, the brain uptake (see e.g., FIG. 9C) derived from PET imaging also correlated with 60 min post imaging quantified uptake (see e.g., FIG. 9D) indicating potential of the radiotracer for imaging endotoxin mediated brain inflammation in vivo. […]

COc1ccc2c(c1)N(C)C(c1ccc(O)c(OCC[18F])c1)c1cccn1-2 (centres unmarked) [18F-SLN-128]
brain uptake in LPS-treated mice relative to saline-treated mice [1]: 2.5 fold
brain uptake in LPS-treated mice relative to saline-treated mice ([1]; listed as 18F-SLN128): 2 fold
retention in brains of LPS treated mice ([1]; compared with saline-treated counterparts): stable retention in brains of LPS treated mice
correlation of brain uptake with immunohistochemistry ([2]; 3-NP treated mice): maps with neurodegeneration and microglial activation in the striatum regions
retention in brains of 3-NP treated mice compared with saline treated ([2]; 72 h post 3-NP into striatum): 2 fold
